This note sets out measurements from patent publication US6900200B2, “Tricyclic hydroxy carboxamides and derivatives thereof tocolytic oxytocin receptor antagonists” (Wyeth, priority 2001, dated 2005).

The structures appear in SMILES notation.

In one experiment the target is T1, human vasopressin V1a receptor subtype (Homo sapiens, UniProt P37288).
T1 construct: host or cells: CHO cells; pZeoSV vector for the Thibonnier line
T1 sequence (P37288 whole entry): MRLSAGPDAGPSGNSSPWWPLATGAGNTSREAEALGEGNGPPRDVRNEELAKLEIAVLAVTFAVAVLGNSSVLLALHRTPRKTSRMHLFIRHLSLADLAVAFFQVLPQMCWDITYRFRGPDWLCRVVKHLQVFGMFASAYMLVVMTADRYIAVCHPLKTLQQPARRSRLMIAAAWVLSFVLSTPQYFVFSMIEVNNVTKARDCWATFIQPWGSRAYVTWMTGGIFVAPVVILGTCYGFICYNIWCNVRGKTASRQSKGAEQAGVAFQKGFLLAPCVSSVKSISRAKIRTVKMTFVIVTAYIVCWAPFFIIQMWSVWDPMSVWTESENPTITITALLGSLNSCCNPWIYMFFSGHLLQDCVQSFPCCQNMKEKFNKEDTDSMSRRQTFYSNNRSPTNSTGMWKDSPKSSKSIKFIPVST
As to the kind of experiment: Vasopressin binding in CHO cell membranes expressing human vasopressin V1a subtype receptors ([3H]Manning ligand radioligand binding). The note with it: @ 100 nM. From the text:
Vasopressin Binding in Chinese Hamster Ovary Cell Membranes Expressing Human Vasopressin V1a Subtype Receptors
Chinese hamster ovary cells (CHO cells) stably transfected with the human vasopressin V1a subtype receptors were either obtained from BioSignal Inc., 1744 rue Williams, Montreal, Quebec, Canada or obtained from M. Thibonnier, Case Western Reserve University School of Medicine, Cleveland, Ohio.
A. Passaging and Amplification of Cells
CHO cells transfected with the human vasopressin V1a subtype receptors obtained from M. Thibonnier (pZeoSV vector) are allowed to grow to confluency (approx. >90%) in T-150 flasks under sterile conditions, in a cell culture medium of F-12 Nutrient Mixture (HAM) with L-glutamine (Gibco Cat. #11765-054) containing 15 mM HEPES (Gibco Cat. #15630-080), 1% antibiotic/antimycotic (add 5 mL 100×, Gibco Cat. #15240-062 per 500 mL F-12), 250 μg/mL Zeocin (add 1.25 mL of 100 mg/mL Invitrogen R-250-01 per 500 mL F-12) and 10% Fetal Bovine Serum (Qualified, heat inactivated, Gibco Cat. #16140-063). The medium is removed by aspiration and the cells are washed with 10 mL of Hank's Balanced Salt solution (Gibco Cat. #14175-095). The salt solution is removed by aspiration and the cells are trypsinized with 5 mL of trypsin-EDTA (0.05% trypsin, 0.53 mM EDTA-4Na, Gibco Cat. #25300-070) for 1 min. The trypsin is removed by aspiration and the cells dislodged by tapping. Cell Culture medium (e.g. 30 mL for 1:30 split) is immediately added and mixed well to inactivate trypsin. 1 mL of detached cells is added to new culture flasks containing fresh cell culture medium (e.g., into 25 mL per T-150 flask), and mixed gently. The cells are incubated at 37° C. in 5% CO2. The medium is changed at 3 to 4 days interval (or as appropriate). The cells grow to confluency (approx. >75%-95%) within 7-8 days. All steps are done under sterile conditions.
The cells are washed twice gently with Hank's Balanced Salt solution (e.g,. use 10 mL per T-150 flask). The excess is removed and the cells are bathed for 15-30 min. in an enzyme-free Cell Dissociation Buffer (e.g. use 8 mL Hank's Based, Gibco Cat. #13150-016 per T-150 flask) until the cells are loosened. The contents are transferred to centrifuge tubes (50 mL) kept in an ice bath. All subsequent steps are done at 4° C. The tubes are centrifuged at 300×g for 15 min (1380 rpm on SORVAL, Model RT6000D, using the rotor for 50 mL tubes). The supernatant is discarded and the cells suspended in homogenizing buffer(10 mM Tris-HCl containing 0.25 M sucrose and 1 mM EDTA, pH 7.4) ensuring that the volume of the buffer is about ten times the volume of the cell pellet. The cells are pooled into a centrifuge tube (50 mL) and homogenized with Polytron at setting 6 for 10 sec. The homogenate is transferred into a Potter-Elvjehm homogenizer and homogenized with 3 strokes. The homogenate is centrifuged at 1500×g for 10 min at 4° C. (3100 rpm using SORVAL, model RT6000D, using the rotor for 50 mL tubes). The pellet is discarded. The supernatant is centrifuged at 100,000×g for 60 min. at 4° C. (Beckman L8-80M ultracentrifuge; spin at 37,500 rpm with rotor type 70 Ti for 50 mL tubes; 38,000 rpm with type 80Ti for 15 mL tubes; or 35,800 rpm with rotor type 45Ti). The supernantant is discarded and the pellet suspended in 3 to 4 mL of Tris buffer (50 mM TRIS—HCl, pH 7.4). The protein content is estimated by the Bradford or Lowry method. The volume of the membrane suspension is adjusted with the membrane buffer (50 mM Tris-HCl containing 0.1% BSA and 0.1 mM PMSF) to give 3.0 mg/mL (or as appropriate) of protein. The membranes are aliquoted and stored at −70° C.
C. Radioligand Binding Assay […]
As a reminder, the inhibition is the relative decrease from the control value, in per cent. `COc1cc2c(cc1OC)N(C(=O)c1ccc(-c3ccccc3C(F)(F)F)c(C)c1)Cc1ccc(C(=O)N(C)CC(O)CO)n1C2` (centres unmarked) [Example 18, N-(2,3-Dihydroxypropyl)-7,8-dimethoxy-N-methyl-10-{[2-methyl-2′-trifluoromethyl-[1,1′-biphenyl]-4-yl]carbonyl}-10,11-dihydro-5H-pyrrolo[2,1-c][1,4]benzodiazepine-3-carboxamide] registered an inhibition at 0.1 µM of 0%.

Regarding `COc1cc2c(cc1OC)N(C(=O)c1ccc(-c3ccccc3C(F)(F)F)c(C)c1)Cc1ccc(C(=O)N(CCO)CCO)n1C2` [Example 19, N,N-Bis(2-Hydroxyethyl)-7,8-dimethoxy-10-{[2-methyl-2′-trifluoromethyl-[1,1′-biphenyl]-4-yl]carbonyl}-10,11-dihydro-5H-pyrrolo[2,1-c][1,4]benzodiazepine-3-carboxamide], the inhibition at 0.1 µM was found to be 1%.

For the compound `O=C(c1ccc2n1Cc1ccccc1N(C(=O)c1ccc(-c3cccc4ccccc34)cc1Cl)C2)N1CCN(CCO)CC1` [Example 25, 2-{4-[10-{[2-Chloro-4-(naphthalen-1-yl)phenyl]carbonyl}-(10,11-dihydro-5H-pyrrolo[2,1-c][1,4]benzodiazepin-3-yl)carbonyl]piperazine-1-yl}-1-hydroxyethane], at 0.1 µM the inhibition was 5%.

Consider `COc1cc2c(cc1OC)N(C(=O)c1ccc(-c3ccccc3OC)c(C)c1)Cc1ccc(C(=O)N(C)C[C@H](O)[C@@H](O)[C@H](O)[C@H](O)CO)n1C2` [Example 37, 7,8-Dimethoxy-10-[(2′-methoxy-2-methyl-[1,1′-biphenyl]-4-yl)carbonyl]-10,11-dihydro-5H-pyrrolo[2,1-c][1,4]benzodiazepine-3-carboxylic acid methyl-[(2S, 3R, 4R, 5R)-2,3,4,5,6-pentahydroxy-hexyl)-amide], for which testing at 0.1 µM gave an inhibition of 6%.

The compound `COc1ccccc1-c1ccc(C(=O)N2Cc3ccc(C(=O)N4CCN(CCO)CC4)n3Cc3ccccc32)cc1C` [Example 40, [4-(2-Hydroxyethyl)-1-piperazinyl]{10-[(2′-methoxy-2-methyl[1,1′-biphenyl]-4yl)carbonyl]-10,11-dihydro-5H-pyrrolo[2,1-c][1,4]benzodiazepin-3-yl}methanone] had an inhibition at 0.1 µM of 13%.

Consider `COc1cc(C(=O)N2Cc3ccc(C(=O)N4CCN(CCO)CC4)n3Cc3ccccc32)ccc1-c1cccc2ccccc12` [Example 41, [4-(2-Hydroxyethyl)-1-piperazinyl]{10-[3-methoxy-4-(1-naphthyl)benzoyl]-10,11-dihydro-5H-pyrrolo[2,1-c][1,4]benzodiazepin-3-yl}methanone], for which the inhibition at 0.1 µM was 12%.

Regarding `COc1cc(C(=O)N2Cc3ccc(C(=O)N4CCN(CCO)CC4)n3Cc3ccccc32)ccc1-c1ccccc1C` [Example 42, [4-(2-Hydroxyethyl)-1-piperazinyl]{10-[(2-methoxy-2′-methyl[1,1′-biphenyl]-4yl)carbonyl]-10,11-dihydro-5H-pyrrolo[2,1-c][1,4]benzodiazepin-3-yl}methanone], 0.1 µM produced 49% inhibition.

As to `COc1ccccc1-c1ccc(C(=O)N2Cc3ccc(C(=O)N4CCN(CCO)CC4)n3Cc3ccccc32)cc1OC` [Example 43, {10-[(2,2′-Dimethoxy[1,1′-biphenyl]-4-yl)carbonyl]-10,11-dihydro-5H-pyrrolo[2,1-c][1,4]benzodiazepin-3-yl}[4-(2-hydroxyethyl)-1-piperazinyl]methanone], the inhibition at 0.1 µM was determined as 1%.

For `COc1cccc(-c2ccc(C(=O)N3Cc4ccc(C(=O)N5CCN(CCO)CC5)n4Cc4ccccc43)cc2C)c1` [Example 44, [4-(2-Hydroxyethyl)-1-piperazinyl]{10-[(3′-methoxy-2-methyl[1,1′-biphenyl]-4yl)carbonyl]-10,11-dihydro-5H-pyrrolo[2,1-c][1,4]benzodiazepin-3-yl}methanone], at 0.1 µM the inhibition was 17%.

In the case of `Cc1ccccc1-c1ccc(C(=O)N2Cc3ccc(C(=O)N4CCN(CCO)CC4)n3Cc3ccccc32)cc1` [Example 45, [4-(2-Hydroxyethyl)-1-piperazinyl]{10-[(2′-methyl[1,1′-biphenyl]-4-yl)carbonyl]-10,11-dihydro-5H-pyrrolo[2,1-c][1,4]benzodiazepin-3-yl}methanone], the inhibition at 0.1 µM was found to be 57%.

As to `Cc1ccccc1-c1ccc(C(=O)N2Cc3ccc(C(=O)N4CCN(CCO)CC4)n3Cc3ccccc32)cc1C` [Example 46, {10-[(2,2′-Dimethyl[1,1′-biphenyl]-4-yl)carbonyl]-10,11-dihydro-5H-pyrrolo[2,1-c][1,4]benzodiazepin-3-yl}[4-(2-hydroxyethyl)-1-piperazinyl]methanone], 0.1 µM produced 53% inhibition.

Staying with this experiment, now noted: value printed in parentheses.
Usually IC50 stands for the concentration needed to halve the response being measured. Turning to `COc1ccccc1-c1ccc(C(=O)N2Cc3ccc(C(=O)N(C)C[C@H](O)[C@@H](O)[C@H](O)[C@H](O)CO)n3Cc3ccccc32)cc1C` [Example 17, 10-[(2′-Methoxy-2-methyl-[1,1′-biphenyl]-4-yl)carbonyl]-10,11-dihydro-5H-pyrrolo[2,1-c][1,4]benzodiazepine-3-carboxylic acid methyl-[(2S,3R,4R, 5R)-2,3,4,5,6-pentahydroxy-hexyl)-amide], the IC50 was 227 nM.

With `COc1cc(-c2ccccc2C(F)(F)F)c(Cl)cc1C(=O)N1Cc2ccc(C(=O)N(C)C[C@H](O)[C@@H](O)[C@H](O)[C@H](O)CO)n2Cc2ccccc21` [Example 20, 10-{[6-Chloro-3-methoxy-2′-trifluoromethyl-[1,1′-biphenyl]-4-yl]carbonyl}-N-methyl-N-[(2S,3R,4R,5R)-2,3,4,5,6-pentahydroxyhexyl]-10,11-dihydro-5H-pyrrolo[2,1-c][1,4]benzodiazepine-3-carboxamide], the IC50 came to 3100 nM.

Consider `COc1cc(C(=O)N2Cc3ccc(C(=O)N(C)CC(O)CO)n3Cc3ccccc32)ccc1-c1ccccc1C(F)(F)F` (centres unmarked) [Example 21, N-(2,3-Dihydroxypropyl)-10-{[2-methoxy-2′-trifluoromethyl-[1,1′-biphenyl]-4-yl]carbonyl}-N-methyl-10,11-dihydro-5H-pyrrolo[2,1-c][1,4]benzodiazepine-3-carboxamide], for which the IC50 is 376 nM.

As for `COc1cc(C(=O)N2Cc3ccc(C(=O)N(C)CC(O)CN(C)C)n3Cc3ccccc32)ccc1-c1ccccc1C(F)(F)F` (centres unmarked) [Example 22, N-[(3-Dimethylamino)-2-hydroxy-propyl]-10-{[2-methoxy-2′-trifluoromethyl-[1,1′-biphenyl]-4-yl]carbonyl}-N-methyl-10,11-dihydro-5H-pyrrolo[2,1-c][1,4]benzodiazepine-3-carboxamide], the IC50 worked out at 227 nM.

For `Cc1ccc(-c2ccc(C(=O)N3Cc4ccc(C(=O)N(C)CC(O)CO)n4Cc4ccccc43)cc2)c2ccccc12` (centres unmarked) [Example 26, 10-{[4-(4-Methyl-naphthalen-1-yl)phenyl]carbonyl}-10,11-dihydro-5H-pyrrolo[2,1-c][1,4]benzodiazepine-3-carboxylic acid (2,3-dihydroxy-propyl)-N-methylamide], the IC50 came to 140 nM.

Regarding `COc1cc(-c2ccccc2C)c(Cl)cc1C(=O)N1Cc2ccc(C(=O)N3CCN(CCO)CC3)n2Cc2ccccc21` [Example 39, {10-[(6-Chloro-3-methoxy-2′-methyl[1,1′-biphenyl]-4-yl)carbonyl]-10,11-dihydro-5H-pyrrolo[2,1-c][1,4]benzodiazepin-3-yl}[4-(2-hydroxyethyl)-1-piperazinyl]methanone], the IC50 turned out to be 759 nM.
